According to US20220110985A1, “NUTRITIONAL COMPOSITION COMPRISING 2'FUCOSYLLACTOSE AND 3'GALACTOSYLLACTOSE” (N.V. Nutricia, priority 2019, published 2022):
Marks after values point to notes of the source that are not given here.

Experiments:
Caco-2 cell monolayer = assay: DON-induced impairment of Caco-2 cell monolayer integrity (TEER, lucifer yellow flux); assay type: cell-based, human; conditions: for effect on DON-induced loss of epithelial barrier integrity (TEER, LY flux), in words: 24 h pretreatment (GLs 0.75 wt. %; 2′-FL 1 mg/ml), then DON 4.2 μM 24 h
Protocol: Beta1,3′-galactosyl-lactose (beta3′-GL), beta1,4′-galactosyllactose (beta4′-GL) and beta1,6′-galactosyl-lactose (beta6′-GL) were obtained from Carbosynth (Berkshire, UK). Alpha1,3′-galactosyl-lactose (alpha3′-GL) was obtained from Elicityl (Crolles, France). Purified deoxydivalenol (DON) (D0156; Sigma Aldrich, St Luis, Mo., USA) was dissolved in pure ethanol and stored at −20° C. Human epithelial colorectal adenocarcinoma (Caco-2) cells were obtained from American […] (Code HTB-37) (Manasse, Va., USA, passage 90-102).
Caco-2 cells were used according to established methods. In brief: cells were cultured in Dulbecco's modified Eagle medium (DMEM) and seeded at a density of 0.3×10^5 cells into 0.3 cm^2 high pore density (0.4 μm) inserts with a polyethylene terephthalate membrane (BD Biosciences, Franklin Lakes, N.J., USA) placed in a 24-well plate. The Caco-2 cells were maintained in a humidified atmosphere of 95 air and 5% CO2 at 37° C.
Caco-2 cell monolayers were thus grown in a transwell system, which is a model for intestinal barrier function. The monolayers were pretreated for 24 h with different GLs, including beta3′-GL, alpha3′-GL, beta4′-GL and beta6′-GL in a concentration of 0.75 wt. % of the GL, before being exposed to the fungal toxin deoxynivalenol (DON), which is a trigger and model compound to impair intestinal barrier. DON was diluted to a final concentration of 4.2 μM in complete cell medium and added to the apical side as well as to the basolateral side of the transwell inserts. […] Incubation with DON was 24 h.
Measurements of the transepithelial electrical resistance (TEER) and lucifer yellow (LY) permeability were conducted to investigate barrier integrity. For TEER measurements a Millicel-ERS voltohmmeter connected to a pair of chopsticks electrodes was used to measure the TEER values. Results are expressed as a percentage of the initial value. For paracellular tracer flux assay the membrane impermeable lucifer yellow (LY) (Sigma, St Luis, Mo., USA) was added in a concentration of 16 μg/ml to the apical compartment in the transwell plate for 4 h, and the paracellular flux was determined by measuring the fluorescence intensity in the basolateral compartment with a spectrophotofluorimeter (FLUOstar Optima, BMG Labtech, Offenburg, Germany) set at excitation and emission wavelengths of 410 and 520 nm, respectively. Release of interleukin-8 (IL-8 or CXCL8), which is a typical marker for inflammation, was quantified in the medium of the apical side and the basolateral side of the Caco-2 transwell inserts in response to the treatments. CXCL8 concentrations were measured by using the human IL-8 ELISA assay (BD Biosciences, Pharmingem, San Diego, Calif., USA) according to manufacturer's instructions. For more details on materials and methods see Akbari et al, 2016, Eur J Nutr. 56(5):1919-1930.

[1] = system: T84 human intestinal epithelial cells; assay: T84 monolayer barrier integrity (TEER) with IL-4; assay type: cell-based; conditions: butyric acid 4 mM, TEER increase relative to t=0
Protocol: T84 human intestinal epithelial cells are commonly used to study intestinal barrier integrity in vitro. T84 cells (ATCC, USA) were cultured on 12 mm transwell inserts (0.4 μm, Corning Costrar, USA) in DMEM-F12 glutamax with penicillin-streptomycin (100 IU/ml), supplemented with 5% FBS-Hl. T84 cells were used 14 days after reaching confluence. Monolayers of T84 cultured on transwell filters were pre-incubated for 48 h with or without butyrate. These samples were subsequently incubated for an additional 48 h in the presence of IL-4 (25 ng/ml). IL-4 was added to the basolateral compartment; medium and additives were changed every 24 h.
Epithelial barrier integrity was assessed by measuring transepithelial resistance (TEER; Ω×cm^2) with the epithelial volt-ohm meter (EVOM; World Precision Instruments, Germany).
Results are shown in Table 5 where relative TEER values are presented. The 48 h and 96 h column is the TEER increase relative to t=0 value. IL-4 treatment disrupted the intestinal barrier function; however in the presence of butyrate this disruption was ameliorated.

[2] = system: human peripheral blood mononuclear cells (PBMCs); assay: PBMC cell activity (WST-1); assay type: cell-based; conditions: after 24 h; non-stimulated and CD3/CD28 stimulated conditions
Protocol: Isolation of PBMC from healthy donors: Human peripheral blood mononuclear cells (PBMC) from healthy donors were isolated from buffy coats (Sanquin, Amsterdam, the Netherlands). PBMC were obtained by centrifugation using Leucosep tubes (Greiner Bio-One). PBMC were collected and washed in PBS (Gibco, Thermo Fisher Technologies)+2% heat-inactivated FCS (Invitrogen), followed by hypotonic lysis of erythrocytes with sterile lysis buffer (0.15 M NH4Cl, 0.01 M KHCO3 and 0.1 mM EDTA, pH of 7.4 at 4° C., all from Merck, Darmstadt, Germany). After lysis, the PBMC were resuspended in freezing medium (70% RPMI 1640 medium (Gibco, Thermo Fisher Technologies) supplemented with 10% heat-inactivated FCS and 100 U/ml penicillin-streptomycin, 20% heat-inactivated FCS and 10% DMSO (Sigma)) and cryopreserved.
PBMC activation model: PBMC (0.2·10^6 cell/well) were cultured in 96-well flat bottom plates (Corning). For 24 hours the cells were pre-incubated with 2′-FL (Jennewein), 3′-GL (0-0.3% w/v; Carbosynth) or sodium butyrate (0.2 mM; Sigma Aldrich) and combinations thereof. Subsequently, the cells were CD3/CD28-activated (Pelicluster CD3 and Pelicluster CD28, Sanquin) for an additional 24 hours. After incubation, IFNγ was measured by ELISA in the supernatants (see below). To determine cell activity after stimulation, PBMC were incubated with cell proliferation reagent WST-1 (10 μl; Roche) and/or 10% Triton (5 μl; negative control). After 3 hours, absorbance was measured at OD450 nm and OD650 nm and cell activity was calculated according to manufacturer's instructions.

human PBMC, unstimulated = assay: Cytokine production of unstimulated PBMC (IL10, CCL20); assay type: cell-based
Excerpt: Isolation of PBMC from healthy donors: Human peripheral blood mononuclear cells (PBMC) from healthy donors were isolated from buffy coats (Sanquin, Amsterdam, the Netherlands). PBMC were obtained by centrifugation using Leucosep tubes (Greiner Bio-One). […] After lysis, the PBMC were resuspended in freezing medium (70% RPMI 1640 medium (Gibco, Thermo Fisher Technologies) supplemented with 10% heat-inactivated FCS and 100 U/ml penicillin-streptomycin, 20% heat-inactivated FCS and 10% DMSO (Sigma)) and cryopreserved. PBMC activation model: PBMC (0.2·10^6 cell/well) were cultured in 96-well flat bottom plates (Corning). For 24 hours the cells were pre-incubated with 2'-FL (Jennewein), 3'-GL (0-0.3% w/v; […] Sigma Aldrich) and combinations thereof. Subsequently, the cells were CD3/CD28-activated (Pelicluster CD3 and Pelicluster CD28, Sanquin) for an additional 24 hours. After incubation, IFNγ was measured by ELISA in the supernatants (see below). […] Roche) and/or 10% Triton (5 μl; negative control). […] Cytokine production of PBMC: PBMC were incubated with indicated reagents. After incubation, the supernatants were collected and IL2, IL6, IL10, IL13, IL21, TNFα, IFNγ, MIF, CCL1, CCL13, CCL17, CCL20, CCL22 and CXCL8-11 levels were measured by conducting a validated multiplex immunoassay based on Luminex technology (xMAP, Luminex Austin Tex. USA). Acquisition was conducted with the Biorad […] (Biorad laboratories, Hercules USA) in combination with xPONENT software version 4.2 (Luminex). Data was analyzed by 5-parametric curve fitting using Bio-Plex Manager software, version 6.1.1 (Biorad). After PBMC stimulation, cell culture supernatants were collected, after which cytokine responses were measured in order to test immune responsiveness of the cells. The levels of cytokines measured in stimulated conditions were corrected for the (low) levels of the cytokines measured in non-stimulated conditions. In addition, since each donor is reacting in its own efficiency onto the T cell stimulus, we calculated the individual index of cytokine response by dividing the intervention induced response by the basal stimulated response.

[3] = Caco-2 monolayer, DON 4.2 μM, 2′-FL 1 mg/ml

OC[C@H]1O[C@@H](OC[C@H]2O[C@@H](O[C@H]3[C@H](O)[C@@H](O)C(O)O[C@@H]3CO)[C@H](O)[C@@H](O)[C@H]2O)[C@H](O)[C@@H](O)[C@H]1O (stereo partly drawn) [beta6′-GL, Gal (beta 1-6)-Gal (beta 1-4)-Glc]
effect on DON-induced loss of epithelial barrier integrity (TEER, LY flux), in words (Caco-2 cell monolayer): did not show a significant effect

OC[C@H]1O[C@@H](O[C@@H]2[C@H](O)[C@@H](O)[C@H](O[C@H]3[C@H](O)[C@@H](O)C(O)O[C@@H]3CO)O[C@@H]2CO)[C@H](O)[C@@H](O)[C@H]1O (stereo partly drawn) [beta4′-GL, Gal (beta 1-4)-Gal (beta 1-4)-Glc]
effect on DON-induced loss of epithelial barrier integrity (TEER, LY flux), in words (Caco-2 cell monolayer): did not show a significant effect

CCCC(=O)O [butyrate, butyric acid]
% TEER at 48 h ([1]; 48 h pre-incubation): 79 (25) % | % TEER at 96 h (IL-4) ([1]; additional 48 h with IL-4 25 ng/ml): 26 (16) % | Immune cell activity as measured by WST, in words [2]: did not influence immune cell metabolic activity | IL10 level as compared to blanc control, in words (human PBMC, unstimulated; 0.2% 2′-FL, 0.2 mM butyrate): did not have an effect | CCL20 level as compared to blanc control, in words (human PBMC, unstimulated; unstimulated PBMC): did not have a statistically significant effect | Relative IL10 level, mean (se) (human PBMC, unstimulated; unstimulated, 0.2% w/v 2′-FL, 0.2 mM butyrate, blanc = 1, observed): 1.911 (0.203) | Relative CCL 20 mean (s.e.) (human PBMC, unstimulated; unstimulated, 0.2% w/v 2′-FL, 0.1 w/v % 3′-GL, 0.2 mM butyrate, blanc = 1, observed): 1.053 (0.127)

OC[C@H]1O[C@H](O[C@H]2[C@@H](O)[C@@H](CO)O[C@@H](O[C@H]3[C@H](O)[C@@H](O)C(O)O[C@@H]3CO)[C@@H]2O)[C@H](O)[C@@H](O)[C@H]1O (stereo partly drawn) [alpha3′-GL, Gal (alpha 1-3)-Gal (beta 1-4)-Glc]
effect on DON-induced loss of epithelial barrier integrity (TEER, LY flux), in words (Caco-2 cell monolayer): did not prevent the DON-induced disrupted intestinal barrier

CC1=C[C@H]2O[C@@H]3[C@H](O)C[C@](C)([C@@]2(CO)[C@H](O)C1=O)[C@]31CO1 [DON, deoxynivalenol]
Lucifer yellow flux (Caco-2 cell monolayer; [3]): 530.8 (3.975)*** ng/ml (cm^2xh) | TEER (% of initial value) Mean (s.e.) (Caco-2 cell monolayer; [3]): 34.33 (1.088)*** % of initial value
